According to patent publication US4465843A, “Process for the preparation of derivatives of 2-pyrrole acetic acid with anti-inflammatory activity” (Laboratories Pharmedical SA, priority 1981, dated 1984):
Read-outs that look alike come from different tables or passages of the source.

How the values were obtained:
[1] = system: contorsions as induced by acetic acid; experiment: analgesic activity, contorsions induced by acetic acid by intraperitoneal route in the rat (Koster et al); type: in vivo; settings: ip
[2] = system: paw edema as induced by carrageenin; experiment: anti-inflammatory activity, paw edema induced by carrageenin in the female rat (Winter et al); type: in vivo; settings: po
[3] = analgesic activity, acetic acid contorsions (i.p.), rat, p.os, read-out: ED50
[4] = anti-inflammatory activity, carrageenin paw edema, female rat, p.os, read-out: ED50

CCn1c(CC(=O)O)cc(C)c1C(=O)c1ccc(Cl)cc1 [Example 3]
ED50 [1, 3]: 31 mg/kg | ED50 [2, 4]: 21.2 mg/kg

CC(=O)Oc1ccccc1C(=O)O [acetyl salicylic acid, reference compound]
ED50 ([1]; Rattus norvegicus): 110 mg/kg

Cc1cc(CC(=O)O)n(C)c1C(=O)c1ccc(Cl)cc1 [Example 2, acetic acid]
ED50 [1, 3]: 2.5 mg/kg | ED50 [2, 4]: 1.7 mg/kg

COc1ccc2c(c1)c(CC(=O)O)c(C)n2C(=O)c1ccc(Cl)cc1 [Indomethacin, reference compound]
ED50 ([2]; Rattus norvegicus): 2.85 mg/kg

CCn1c(CC(=O)O)cc(C)c1C(=O)c1ccccc1 [Example 4]
ED50 [1, 3]: 82 mg/kg | ED50 [2, 4]: 48 mg/kg
